Data: US8445510B2, “Fused bicyclic kinase inhibitors” (OSI Pharmaceuticals, LLC, priority 2011, dated 2013)

Key:
Aurora B = target: T1, Aurora B (Homo sapiens, UniProt Q96GD4); test: Aurora B cell mechanistic assay (HT-29), phospho-Histone H3 (Ser10) ELISA; format: cell-based; conditions: HT-29 cell line; inhibition of phospho-Histone H3 (Ser10); at least duplicate experiments (italicized if single experiment); read-out: Aurora B mech IC50
T1 construct: HT-29 cells grown in complete growth media
T1 sequence (Q96GD4 whole entry): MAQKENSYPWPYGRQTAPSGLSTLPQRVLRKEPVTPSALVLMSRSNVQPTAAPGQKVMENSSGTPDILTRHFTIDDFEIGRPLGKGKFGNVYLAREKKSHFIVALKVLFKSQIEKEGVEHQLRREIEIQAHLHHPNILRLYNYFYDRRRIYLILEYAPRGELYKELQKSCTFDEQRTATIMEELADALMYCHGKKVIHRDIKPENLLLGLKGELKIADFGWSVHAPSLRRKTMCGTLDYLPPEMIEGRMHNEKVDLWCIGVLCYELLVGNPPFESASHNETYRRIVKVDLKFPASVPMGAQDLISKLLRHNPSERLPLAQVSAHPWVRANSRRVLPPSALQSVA
How it was run: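 HT-29 cells treated 1 h at 37 °C with serially diluted compound, then 100 nM Calyculin A added for 30 min. Lysates assayed by phospho-Histone H3 (Ser10) ELISA at 450 nm; normalized to DMSO (100%) and a reference Aurora B inhibitor (full inhibition); IC50 by four-parameter fit.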

RON = target: T2, RON (Homo sapiens, UniProt Q04912); test: sfRON cell mechanistic assay (HeLa), phosphorylated RON ELISA; format: cell-based; conditions: HeLa cells transfected with sfRON; inhibition of phosphorylated RON; four hours incubation; at least duplicate experiments; read-out: sfRON mech IC50
T2 sequence (Q04912 913-1400): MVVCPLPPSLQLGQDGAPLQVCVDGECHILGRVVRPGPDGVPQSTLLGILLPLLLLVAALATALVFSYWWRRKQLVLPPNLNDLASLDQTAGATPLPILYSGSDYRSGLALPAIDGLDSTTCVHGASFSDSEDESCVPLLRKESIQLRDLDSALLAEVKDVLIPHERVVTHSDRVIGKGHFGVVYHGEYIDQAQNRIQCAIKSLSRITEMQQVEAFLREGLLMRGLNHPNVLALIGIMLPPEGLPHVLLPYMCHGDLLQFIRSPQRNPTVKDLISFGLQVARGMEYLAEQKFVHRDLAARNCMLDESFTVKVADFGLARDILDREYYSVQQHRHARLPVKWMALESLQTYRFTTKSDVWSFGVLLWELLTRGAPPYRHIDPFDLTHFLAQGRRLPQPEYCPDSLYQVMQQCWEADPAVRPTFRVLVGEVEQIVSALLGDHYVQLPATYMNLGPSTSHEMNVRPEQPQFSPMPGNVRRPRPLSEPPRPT
How it was run: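 HeLa cells transiently transfected with sfRON plasmid, then exposed 4 h at 37 °C to a 6-point compound series (typically 10 μM to 3 nM, 0.5% DMSO). Phospho-RON (pY1238/1239) in lysates measured by sandwich ELISA with luminescence. IC50 from 4-parameter fit of percent-of-DMSO-control data, at least duplicate runs.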

| SMILES | IC50 (Aurora B) [nM] | IC50 (RON) [nM] |
| --- | --- | --- |
| COc1ccc(F)c(Cl)c1[C@@H](C)c1c[nH]c2ncc(-c3c(C)nn(C)c3Cl)cc12 [Example 63, 5-(5-Chloro-1,3-dimethyl-1H-pyrazol-4-yl)-3-[(1S)-1-(2-chloro-3-fluoro-6-methoxyphenyl)ethyl]-1H-pyrrolo[2,3-b]pyridine] | > 1000 | > 1000 |
| COc1ccc(F)c(Cl)c1[C@@H](C)c1c[nH]c2ncc(-c3cncn3C)cc12 [Example 64, 3-[(1S)-1-(2-Chloro-3-fluoro-6-methoxyphenyl)ethyl]-5-(1-methyl-1H-imidazol-5-yl)-1H-pyrrolo[2,3-b]pyridine] | > 1000 | > 1000 |
| COc1ccc(F)c(Cl)c1[C@@H](C)c1c[nH]c2ncc(-c3cnc(C)n3C)cc12 [Example 65, 3-[(1S)-1-(2-chloro-3-fluoro-6-methoxyphenyl)ethyl]-5-(1,2-dimethyl-1H-imidazol-5-yl)-1H-pyrrolo[2,3-b]pyridine] | > 1000 | > 1000 |
| Cc1nn(C[C@@H](O)CO)c(C)c1-c1cnc2[nH]cc([C@H](C)c3c(Cl)ccc(F)c3Cl)c2c1 [Example 66, (2R)-3-(4-{3-[(1S)-1-(2,6-Dichloro-3-fluorophenyl)ethyl]-1H-pyrrolo[2,3-b]pyridin-5-yl}-3,5-dimethyl-1H-pyrazol-1-yl)propane-1,2-diol] | > 1000 | 200 to 1000 |
| Cc1c(-c2cnc3[nH]cc([C@H](C)c4c(Cl)ccc(F)c4Cl)c3c2)cnn1[C@H]1CC[C@H](O)CC1 [Example 67, trans-4-(4-{3-[(1S)-1-(2,6-Dichloro-3-fluorophenyl)ethyl]-1H-pyrrolo[2,3-b]pyridin-5-yl}-5-methyl-1H-pyrazol-1-yl)cyclohexanol] | > 1000 | 200 to 1000 |
| Cc1nn(C[C@@H](O)CO)c(C)c1-c1cnc2[nH]cc([C@H](C)c3c(OC(F)F)ccc(F)c3Cl)c2c1 [Example 69, (2R)-3-[4-(3-{(1S)-1-[2-Chloro-6-(difluoromethoxy)-3-fluorophenyl]ethyl}-1H-pyrrolo[2,3-b]pyridin-5-yl)-3,5-dimethyl-1H-pyrazol-1-yl]propane-1,2-diol] | > 1000 | ≤ 200 |
| Cc1c(-c2cnc3[nH]cc([C@H](C)c4c(OC(F)F)ccc(F)c4Cl)c3c2)cnn1C[C@H](O)CO [Example 70, (2S)-3-[4-(3-{(1S)-1-[2-Chloro-6-(difluoromethoxy)-3-fluorophenyl]ethyl}-1H-pyrrolo[2,3-b]pyridin-5-yl)-5-methyl-1H-pyrazol-1-yl]propane-1,2-diol] | 200 to 1000 | ≤ 200 |
| Cc1nn(C[C@H](O)CO)cc1-c1cnc2[nH]cc([C@H](C)c3c(OC(F)F)ccc(F)c3Cl)c2c1 [Example 71, (2S)-3-[4-(3-{(1S)-1-[2-Chloro-6-(difluoromethoxy)-3-fluorophenyl]ethyl}-1H-pyrrolo[2,3-b]pyridin-5-yl)-3-methyl-1H-pyrazol-1-yl]propane-1,2-diol] | 50 to 200 | ≤ 200 |
| CCc1c(-c2cnc3[nH]cc([C@H](C)c4c(OC(F)F)ccc(F)c4Cl)c3c2)cnn1CC(C)(C)O [Example 72, 1-[4-(3-{(1S)-1-[2-Chloro-6-(difluoromethoxy)-3-fluorophenyl]ethyl}-1H-pyrrolo[2,3-b]pyridin-5-yl)-5-ethyl-1H-pyrazol-1-yl]-2-methylpropan-2-ol] | 200 to 1000 | 200 to 1000 |
| CCc1nn(CC(C)(C)O)cc1-c1cnc2[nH]cc([C@H](C)c3c(OC(F)F)ccc(F)c3Cl)c2c1 [Example 73, 1-[4-(3-{(1S)-1-[2-Chloro-6-(difluoromethoxy)-3-fluorophenyl]ethyl}-1H-pyrrolo[2,3-b]pyridin-5-yl)-3-ethyl-1H-pyrazol-1-yl]-2-methylpropan-2-ol] | > 1000 | 200 to 1000 |
| Cc1c(-c2cnc3[nH]cc([C@H](C)c4c(OC(F)F)ccc(F)c4Cl)c3c2)cnn1[C@H]1CC[C@H](O)CC1 [Example 74, trans-4-[4-(3-{(1S)-1-[2-Chloro-6-(difluoromethoxy)-3-fluorophenyl]ethyl}-1H-pyrrolo[2,3-b]pyridin-5-yl)-5-methyl-1H-pyrazol-1-yl]cyclohexanol] | 200 to 1000 | ≤ 200 |
| Cc1c(-c2cnc3[nH]cc([C@H](C)c4c(OC(F)F)ccc(F)c4Cl)c3c2)cnn1[C@@H]1C[C@@H](O)[C@@H](O)C1 [Example 75, (1R,2S,4S)-4-[4-(3-{(1S)-1-[2-Chloro-6-(difluoromethoxy)-3-fluoro-phenyl]ethyl}-1H-pyrrolo[2,3-b]pyridin-5-yl)-5-methyl-1H-pyrazol-1-yl]cyclopentane-1,2-diol] | 200 to 1000 | ≤ 200 |
| Cc1c(-c2cnc3[nH]cc([C@H](C)c4c(OC(F)F)ccc(F)c4Cl)c3c2)cnn1[C@H]1CC[C@H](C(N)=O)CC1 [Example 76, trans-4-[4-(3-{(1S)-1-[2-Chloro-6-(difluoromethoxy)-3-fluorophenyl]ethyl}-1H-pyrrolo[2,3-b]pyridin-5-yl)-5-methyl-1H-pyrazol-1-yl]cyclohexanecarboxamide] | 200 to 1000 | ≤ 200 |
| CCc1nn([C@H]2CC[C@H](O)CC2)cc1-c1cnc2[nH]cc([C@H](C)c3c(OC(F)F)ccc(F)c3Cl)c2c1 [Example 77, trans-4-[4-(3-{(1S)-1-[2-Chloro-6-(difluoromethoxy)-3-fluorophenyl]ethyl}-1H-pyrrolo[2,3-b]pyridin-5-yl)-3-ethyl-1H-pyrazol-1-yl]cyclohexanol] | 200 to 1000 | ≤ 200 |
| CCc1c(-c2cnc3[nH]cc([C@H](C)c4c(OC(F)F)ccc(F)c4Cl)c3c2)cnn1[C@H]1CC[C@H](O)CC1 [Example 78, trans-4-[4-(3-{(1S)-1-[2-Chloro-6-(difluoromethoxy)-3-fluorophenyl]ethyl}-1H-pyrrolo[2,3-b]pyridin-5-yl)-5-ethyl-1H-pyrazol-1-yl]cyclohexanol] | > 1000 | 200 to 1000 |
| Cc1c(-c2cnc3[nH]cc([C@H](C)c4c(OC(F)F)ccc(F)c4Cl)c3c2)cnn1[C@H]1C[C@@](C)(O)C1 [Example 79, cis-3-[4-(3-{(1S)-1-[2-Chloro-6-(difluoromethoxy)-3-fluorophenyl]ethyl}-1H-pyrrolo[2,3-b]pyridin-5-yl)-5-methyl-1H-pyrazol-1-yl]-1-methylcyclobutanol] | > 1000 | 200 to 1000 |
| Cc1c(-c2cnc3[nH]cc([C@H](C)c4c(OC(F)F)ccc(F)c4Cl)c3c2)cnn1[C@H]1C[C@@H](O)C1 [Example 81, cis-3-[4-(3-{(1S)-1-[2-Chloro-6-(difluoromethoxy)-3-fluorophenyl]ethyl}-1H-pyrrolo[2,3-b]pyridin-5-yl)-5-methyl-1H-pyrazol-1-yl]cyclobutanol] | > 1000 | 200 to 1000 |
| C[C@H](c1c(OC(F)F)ccc(F)c1Cl)c1c[nH]c2ncc(-c3cnn([C@H]4CC[C@H](O)CC4)c3Cl)cc12 [Example 82, trans-4-[5-Chloro-4-(3-{(1S)-1-[2-chloro-6-(difluoromethoxy)-3-fluorophenyl]ethyl}-1H-pyrrolo[2,3-b]pyridin-5-yl)-1H-pyrazol-1-yl]cyclohexanol] | > 1000 | 200 to 1000 |
| C[C@H](c1c(OC(F)F)ccc(F)c1Cl)c1c[nH]c2ncc(-c3cnn([C@H]4CC[C@H](O)CC4)c3CO)cc12 [Example 83, trans-4-[4-(3-{(1S)-1-[2-Chloro-6-(difluoromethoxy)-3-fluorophenyl]ethyl}-1H-pyrrolo[2,3-b]pyridin-5-yl)-5-(hydroxymethyl)-1H-pyrazol-1-yl]cyclohexanol] | > 1000 | 200 to 1000 |
| C[C@H](c1c(OC(F)F)ccc(F)c1Cl)c1c[nH]c2ncc(-c3cnn([C@H]4CC[C@H](O)CC4)c3F)cc12 [Example 84, trans-4-[4-(3-{(1S)-1-[2-Chloro-6-(difluoromethoxy)-3-fluorophenyl]ethyl}-1H-pyrrolo[2,3-b]pyridin-5-yl)-5-fluoro-1H-pyrazol-1-yl]cyclohexanol] | 200 to 1000 | 200 to 1000 |
| [2H]C([2H])([2H])c1c(-c2cnc3[nH]cc([C@H](C)c4c(OC(F)F)ccc(F)c4Cl)c3c2)cnn1[C@H]1CC[C@H](O)CC1 [Example 85, trans-4-[4-(3-{(1S)-1-[2-Chloro-6-(difluoromethoxy)-3-fluorophenyl]ethyl}-1H-pyrrolo[2,3-b]pyridin-5-yl)-5-(^2H3)methyl-1H-pyrazol-1-yl]cyclohexanol] | 200 to 1000 | 200 to 1000 |
| Cc1c(-c2cnc3[nH]cc([C@H](C)c4c(O)ccc(F)c4Cl)c3c2)cnn1[C@H]1CC[C@H](O)CC1 [Example 102, 3-Chloro-4-fluoro-2-[(1S)-1-{5-[1-(trans-4-hydroxycyclohexyl)-5-methyl-1H-pyrazol-4-yl]-1H-pyrrolo[2,3-b]pyridin-3-yl}ethyl]phenol] | > 1000 | 200 to 1000 |
